Target: CYP102A1 (Priestia megaterium, UniProt P14779, E144G/E268V/F82I/F88V/L189Q/N214S/R48L)
Assay: UV-visible spectral binding titration (type II shift); also turnover by HPLC with NADPH-generating system (Km […])

Chain of CYP102A1 (P14779 whole entry R48L/F82I/F88V/E144G/L189Q/N214S/E268V): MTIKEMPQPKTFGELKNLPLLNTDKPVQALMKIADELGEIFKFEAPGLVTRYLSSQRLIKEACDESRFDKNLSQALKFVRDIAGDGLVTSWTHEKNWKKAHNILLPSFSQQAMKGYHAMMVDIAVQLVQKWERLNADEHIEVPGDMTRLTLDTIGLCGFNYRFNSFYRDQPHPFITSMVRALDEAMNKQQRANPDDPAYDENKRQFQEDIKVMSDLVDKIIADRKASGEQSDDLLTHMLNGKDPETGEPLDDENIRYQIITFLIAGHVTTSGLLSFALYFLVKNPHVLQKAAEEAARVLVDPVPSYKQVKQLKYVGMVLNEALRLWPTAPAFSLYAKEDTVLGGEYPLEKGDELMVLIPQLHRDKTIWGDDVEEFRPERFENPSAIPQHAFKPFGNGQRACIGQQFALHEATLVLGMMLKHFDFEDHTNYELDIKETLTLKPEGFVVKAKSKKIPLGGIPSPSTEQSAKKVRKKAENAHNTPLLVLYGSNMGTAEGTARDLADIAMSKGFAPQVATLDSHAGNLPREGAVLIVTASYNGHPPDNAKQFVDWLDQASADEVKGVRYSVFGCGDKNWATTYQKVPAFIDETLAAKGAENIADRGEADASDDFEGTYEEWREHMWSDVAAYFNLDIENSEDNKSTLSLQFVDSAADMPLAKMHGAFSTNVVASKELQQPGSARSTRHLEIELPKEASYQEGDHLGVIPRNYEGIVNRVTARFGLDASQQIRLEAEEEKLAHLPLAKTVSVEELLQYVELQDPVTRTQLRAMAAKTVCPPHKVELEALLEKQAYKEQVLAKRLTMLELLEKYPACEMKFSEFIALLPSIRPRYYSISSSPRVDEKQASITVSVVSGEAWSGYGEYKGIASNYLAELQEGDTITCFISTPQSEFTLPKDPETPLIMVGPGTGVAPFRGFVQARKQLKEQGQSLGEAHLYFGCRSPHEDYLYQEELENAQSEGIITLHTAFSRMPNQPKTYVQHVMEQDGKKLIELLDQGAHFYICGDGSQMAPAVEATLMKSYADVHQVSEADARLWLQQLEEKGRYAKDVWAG

In the case of `CC1=CCC(O)(C(C)C)CC1` (racemic) [terpinen-4-ol], the Kd is reported as 920 ± 260 nM.
